US10071981B2, “Method of priming plants against abiotic stress factors” (Research Foundation of The City University of New York, priority 2014, dated 2018)
“Also recorded” adds a separate entry of the source.

Experiments:
Format in all cases: in vivo
Medicago sativa plants [1] = test: Real-time RT-PCR gene expression in leaves of drought-stressed plants; details: FIG. 17; for relative gene expression of genes examined (NR, GST17, Cu/ZnSOD, FeSOD, APX, PIP): after rewatering, vs drought-stressed alone plants; for SOD isoforms (Cu/ZnSOD, FeSOD) relative gene expression: pretreated and stressed vs stressed alone plants
Procedure: (§1) Mature (42 d) Medicago sativa plants were used for the purposes of this study. These were grown in soil medium under controlled, optimal growth conditions and were then subjected to drought stress. Drought was imposed by withholding watering until drought symptoms (loss of turgour, wilting, chlorosis) were observed (6 d after stress imposition). Samples were then re-watered to observe recovery potential after 1 day (7 d). Both NOSH and NOSH-aspirin were applied at 100 μM concentration by foliar spraying at the start of stress imposition. The hybrid donors were diluted in 30% (v/v) methanol. Physiological parameters (stomatal conductance and chlorophyll fluorescence) were measured with a DT-Porometer AP4 (Delta-TDevices, Cambridge, UK) and an OptiSci OS-30p chlorophyll fluorometer (Opti-Sciences, Hudson, N.H., USA) respectively (Filippou et al., 2013). Chlorophyll fluorescence (Fv/Fm) of leaves represents the maximum photochemical efficiency of photosystem II (PSII). Cellular damage was evaluated by lipid peroxidation levels (TBARS content), nitric oxide (NO) content (nitrosative stress) and hydrogen peroxide (H2O2) content (oxidative stress) as previously described (Filippou et al., 2011; Tanou et al., 2012), while osmoprotective capacity was evaluated by proline content (ninhydrin assay) as previously described (Antoniou et al., 2013). Antioxidant enzyme activities (SOD and CAT) were measured as previously described (Filippou et al., 2014). Real-time RT-PCR gene expression analysis was carried out using a Biorad IQ5 thermocycler as previously described (Filippou et al., 2013). Relative quantification of gene expression and statistical analysis of all qRT-PCR data (pairwise fixed reallocation randomization test) were performed using the REST software according to Pfaffl et al. (2002). The actin 11 gene was used as a housekeeping reference gene. All analyses were carried out using three independent biological pools of samples as replicates (with a minimum of fifteen independent plants per pooled sample). The experimental setup is shown schematically in FIG. 8.
Finally, qRT-PCR gene expression analysis was carried out (FIG. 17) for key defense-related genes, including major enzymatic antioxidants (GST17, Cu/ZnSOD, FeSOD, cAPX) linked with ROS scavenging, as well as genes involved in NO biosynthesis (NR). In addition, an aquaporin (PIP) was also examined which is linked with response to water deficit and transport.

Medicago sativa plants [2] = test: Physiological measurements (stomatal conductance, chlorophyll fluorescence) in drought-stressed plants; details: 100 μM; vs drought-stressed samples; FIG. 12
Procedure: as §1

[3] = tested on: Arabidopsis thaliana Col-0 plants; test: Growth promotion (leaf area, ImageJ leaf series) on MS agar plates; details: 23 DAS; for true leaf 4 and 5 area: vs control samples
Procedure: An in vitro experiment was carried out in order to evaluate the potential of NOSH and NOSH-A for growth promotion in terms of leaf area increase in Arabidopsis thaliana plants. Arabidopsis thaliana Col-0 plants were used for the purposes of this study. Seeds were placed on MS agar plates containing 10 μM or 100 μM NOSH or NOSH-A (diluted in 20% (v/v) acetone) which were then incubated in the dark at 4° C. for 4 days for stratification purposes. Appropriate control plates were also prepared. The plates were then placed in a growth chamber and leaves were sampled at 23 DAS (days after sowing). Complete leaf series were examined from seven individual plants per treatment (n=7). A complete leaf series consists of all leaves from each individual plant, starting from the cotyledons and including all true leaves, harvested and examined in order of presence on the plant (from older to younger true leaf). These leaves are excised and placed on agar plates where photographs are taken and leaf areas are calculated using ImageJ software (http://imagej.nih.gov/ij/).

Medicago sativa plants [4] = test: Nitric oxide content in leaves of drought-stressed plants; details: 100 μM; vs drought-stressed samples; FIG. 14B
Procedure: as §1, with “Antioxidant enzyme activities (SOD and CAT) were measured as previously described (Filippou et al., 2014). Real-time RT-PCR gene expression analysis was carried out using a Biorad IQ5 thermocycler as previously described (Filippou et al., 2013). Relative quantification of gene expression and statistical analysis of all qRT-PCR data (pairwise fixed reallocation randomization test) were performed using the REST software according to Pfaffl et al. (2002). The actin 11 gene was used as a housekeeping reference gene. All analyses were carried out using three independent biological pools of samples as replicates (with a minimum of fifteen independent plants per pooled sample). The experimental setup is shown schematically in FIG. 8.” left out

Medicago sativa plants [5] = test: Antioxidant enzyme activities (SOD and CAT) in leaves of drought-stressed plants; details: 7 d, after rewatering, vs stressed-alone plants; for SOD enzymatic activity: FIG. 16A; for CAT enzymatic activity: FIG. 16B
Procedure: as §1
The enzymatic activity of two key antioxidants (SOD and CAT) were evaluated. SOD dismutates superoxide radicals to hydrogen peroxide, while CAT directly scavenges hydrogen peroxide. Both enzymes appear to be regulated in response to stress and priming agent pretreatment in a differential manner (FIG. 16). […] In any case, it should be noted that the cellular enzymatic antioxidant battery linked with ROS scavenging is very complex involving several other components (e.g. APX), isoforms in several compartments (e.g. peroxisomes, chloroplasts, mitochondria), as well as non-enzymatic antioxidants (e.g. ascorbic acid, tocopherols and glutathione).

Medicago sativa plants [6] = test: Hydrogen peroxide content in leaves of drought-stressed plants; details: FIG. 14A
Procedure: as §1
Abiotic stress conditions are associated with increased levels of reactive oxygen (ROS) and reactive nitrogen (RNS) species content, which are toxic for the cells. During such conditions, the production of ROS and RNS exceeds the capacity of the antioxidative defense systems to remove them, causing nitro-oxidative stress.

[7] = 100 μM, 6 d drought, vs drought-stressed samples
[8] = rewatering at 7 d vs respective pretreated, drought-stressed samples at 6 d

| Structure (SMILES) | relative gene expression of genes examined (NR, GST17, Cu/ZnSOD, FeSOD, APX, PIP) (Medicago sativa plants [1]) | SOD isoforms (Cu/ZnSOD, FeSOD) relative gene expression (Medicago sativa plants [1]) | chlorophyll fluorescence (Fv/Fm) (Medicago sativa plants [2]) | stomatal conductance (Medicago sativa plants [2]) | growth induction (macroscopic analysis) ([3]; 10 μM in MS agar) | overall rosette area (total leaf area per plant), increase compared with control plants ([3]; 10 μM, n=7, FIG. 22) [%] | true leaf 4 and 5 area ([3]; 10 μM, n=7, FIG. 22) | growth induction (macroscopic analysis) ([3]; 100 μM in MS agar) | greening of leaves ([3]; MS agar plates, FIGS. 18-21) | nitric oxide (NO) content (Medicago sativa plants [4]) | SOD enzymatic activity (Medicago sativa plants [5]) | CAT enzymatic activity (Medicago sativa plants [5]) | H2O2 content (Medicago sativa plants [6]; [7]) | H2O2 content (Medicago sativa plants [6]; [8]) |
| --- | --- | --- | --- | --- | --- | --- | --- | --- | --- | --- | --- | --- | --- | --- |
| O=C(CCCO[N+](=O)[O-])Oc1ccc(-c2cc(=S)ss2)cc1 [NOSH] | general suppression of most genes examined | significant transcriptional regulation (induction) | significantly higher | significantly higher | visible growth induction | 37 | significantly higher | contrarily | increased greening | significantly reversed | significantly induced | increased CAT enzymatic activity; also recorded: significantly induced | significantly reversed | ameliorated even further |
| O=C(CCCO[N+](=O)[O-])Oc1ccccc1C(=O)Oc1ccc(-c2cc(=S)ss2)cc1 [NOSH-A] | general suppression of most genes examined | significant transcriptional regulation (induction) | significantly higher | significantly higher | visible growth induction | – | no significant increase | contrarily | – | significantly reversed | significantly induced | increased CAT enzymatic activity; also recorded: significantly induced | significantly reversed | ameliorated even further |
